Results reported in ChEMBL document CHEMBL1143055, “2,3,5-Substituted tetrahydrofurans as cancer chemopreventives. Part 1: synthesis and anti-cancer activities of 5-hydroxymethyl-2,3-diaryl-tetrahydro-furan-3-ols” (2007).

How the values were obtained:
HOP-92 [1] = assay: Growth inhibition of human HOP92 cells at 10 nM; type: functional
OVCAR-3 = assay: Antitumor activity against human OVCAR-3 cells; type: functional
DU-145 = assay: Antitumor activity against human DU145 cells; type: functional
CCRF-CEM = assay: Antitumor activity against human CCRF-CEM cells; type: functional
MOLT-4 = assay: Antitumor activity against human MOLT4 cells; type: functional
Malme-3M = assay: Antitumor activity against human MALME-3M cells; type: functional
NCI-H23 = assay: Antitumor activity against human NCI-H23 cells; type: functional
U-251 = assay: Antitumor activity against human U251 cells; type: functional
[2] = Antitumor activity against human HL60 (TB) cells; type: functional, HL-60(TB); conditions: HL-60
[3] = Antitumor activity against human HS 578T cells; type: functional
MCF7 = assay: Antitumor activity against human MCF7 cells; type: functional
MDA-MB-435 = assay: Antitumor activity against human MDA-MB-435 cells; type: functional
[4] = Antitumor activity against human […] cells; type: functional
OVCAR-5 = assay: Antitumor activity against human OVCAR5 cells; type: functional
A549 = assay: Antitumor activity against human A549 cells; type: functional
UACC-62 = assay: Antitumor activity against human UACC62 cells; type: functional
RXF 393 = assay: Antitumor activity against human RXF393 cells; type: functional
BT-549 = assay: Antitumor activity against human BT549 cells; type: functional
IGROV-1 = assay: Antitumor activity against human IGROV1 cells; type: functional
SK-OV-3 = assay: Antitumor activity against human SK-OV-3 cells; type: functional
786-0 = assay: Antitumor activity against human 786-0 cells; type: functional
KM12 = assay: Antitumor activity against human KM12 cells; type: functional
SF-539 = assay: Antitumor activity against human SF539 cells; type: functional
LOX IMVI = assay: Antitumor activity against human LOX IMVI cells; type: functional
TK-10 = assay: Antitumor activity against human TK10 cells; type: functional
SN12C = assay: Antitumor activity against human SN12C cells; type: functional
[5] = Antitumor activity against human NCI-H322 cells; type: functional
SNB-19 = assay: Antitumor activity against human SNB19 cells; type: functional
SNB-75 = assay: Antitumor activity against human SNB75 cells; type: functional
COLO 205 = assay: Antitumor activity against human COLO205 cells; type: functional
PC-3 = assay: Antitumor activity against human PC3 cells; type: functional
HCC 2998 = assay: Antitumor activity against human HCC2998 cells; type: functional
UO-31 = assay: Antitumor activity against human UO31 cells; type: functional
NCI-H226 = assay: Antitumor activity against human NCI-H226 cells; type: functional
K562 = assay: Antitumor activity against human K562 cells; type: functional
HCT-116 = assay: Antitumor activity against human HCT116 cells; type: functional
CAKI-1 = assay: Antitumor activity against human CAKI-1 cells; type: functional
NCI-H460 = assay: Antitumor activity against human NCI-H460 cells; type: functional
RPMI-8226 = assay: Antitumor activity against human RPMI8226 cells; type: functional
HT-29 = assay: Antitumor activity against human HT29 cells; type: functional
NCI/ADR-RES = assay: Antitumor activity against human NCI/ADR-RES cells; type: functional
OVCAR-4 = assay: Antitumor activity against human OVCAR4 cells; type: functional
SW-620 = assay: Antitumor activity against human SW620 cells; type: functional
SF-268 = assay: Antitumor activity against human SF268 cells; type: functional
SF-295 = assay: Antitumor activity against human SF295 cells; type: functional
SK-MEL-28 = assay: Antitumor activity against human SK-MEL-28 cells; type: functional
A498 = assay: Antitumor activity against human A498 cells; type: functional
[6] = Growth inhibition of human HS 578T cells at 0.1 uM; type: functional
HOP-62 = assay: Antitumor activity against human HOP62 cells; type: functional
ACHN = assay: Antitumor activity against human ACHN cells; type: functional
EKVX = assay: Antitumor activity against human EKVX cells; type: functional
HOP-92 [7] = assay: Antitumor activity against human HOP92 cells; type: functional
UACC-257 = assay: Antitumor activity against human UACC257 cells; type: functional
SK-MEL-5 = assay: Antitumor activity against human SK-MEL-5 cells; type: functional
HCT-15 = assay: Antitumor activity against human HCT15 cells; type: functional
NCI-H522 = assay: Antitumor activity against human NCI-H522 cells; type: functional
OVCAR-8 = assay: Antitumor activity against human OVCAR8 cells; type: functional
SR = assay: Antitumor activity against human SR cells; type: functional

## OC[C@H]1C[C@](O)(c2ccc(F)cc2)[C@@H](c2ccc(F)cc2)O1 (relative stereo)
HOP-92 [1]
  inhibition at 0.01 µM: 13%
OVCAR-3
  GI50: > 100 µM
DU-145
  GI50: > 100 µM
CCRF-CEM
  GI50: > 100 µM
MOLT-4
  GI50: 100 µM
Malme-3M
  GI50: > 100 µM
NCI-H23
  GI50: > 100 µM
U-251
  GI50: > 100 µM
[2]
  GI50: > 100 µM
[3]
  GI50: 44.7 µM
MCF7
  GI50: > 100 µM
MDA-MB-435
  GI50: > 100 µM
[4]
  GI50: > 100 µM
OVCAR-5
  GI50: > 100 µM
A549
  GI50: > 100 µM
UACC-62
  GI50: > 100 µM
RXF 393
  GI50: 52.5 µM
BT-549
  GI50: > 100 µM
IGROV-1
  GI50: 58.9 µM
SK-OV-3
  GI50: > 100 µM
786-0
  GI50: > 100 µM
KM12
  GI50: > 100 µM
SF-539
  GI50: > 100 µM
LOX IMVI
  GI50: > 100 µM
TK-10
  GI50: > 100 µM
SN12C
  GI50: > 100 µM
[5]
  GI50: > 100 µM
SNB-19
  GI50: > 100 µM
SNB-75
  GI50: > 100 µM
COLO 205
  GI50: > 100 µM
PC-3
  GI50: > 100 µM
HCC 2998
  GI50: > 100 µM
UO-31
  GI50: > 100 µM
NCI-H226
  GI50: > 100 µM
K562
  GI50: > 100 µM
HCT-116
  GI50: 91.2 µM
CAKI-1
  GI50: > 100 µM
NCI-H460
  GI50: > 100 µM
RPMI-8226
  GI50: > 100 µM
HT-29
  GI50: > 100 µM
NCI/ADR-RES
  GI50: > 100 µM
OVCAR-4
  GI50: > 100 µM
SW-620
  GI50: > 100 µM
SF-268
  GI50: > 100 µM
SF-295
  GI50: > 100 µM
SK-MEL-28
  GI50: > 100 µM
A498
  GI50: > 100 µM
[6]
  inhibition at 0.1 µM: 29%
HOP-62
  GI50: > 100 µM
ACHN
  GI50: > 100 µM
EKVX
  GI50: > 100 µM
HOP-92 [7]
  GI50: 66.1 µM
UACC-257
  GI50: > 100 µM
SK-MEL-5
  GI50: > 100 µM
HCT-15
  GI50: > 100 µM
NCI-H522
  GI50: > 100 µM
OVCAR-8
  GI50: > 100 µM
SR
  GI50: > 100 µM
